Marks after values point to notes of the source that are not given here.
Key:
Assay type in all cases: in vivo
db/db mice [1] = test: Plasma biochemical parameters (AST, ALT, BUN, Cr, HbA1c)
Method: Inflammatory markers such as serum aspartate aminotransferase (AST), alanine aminotransferase (ALT), blood urea nitrogen (BUN), creatinine (Cr), and hemoglobin Alc (HbAlc) were measured using a BMC-Hitachi 717 chemistry auto analyzer.

db/db mice [2] = test: Oral glucose tolerance test (OGTT); parameters: OGTT AUC: unit not given here; settings: for OGTT AUC: Ex 3: db/db mice, daily dosing 3 weeks at doses of Table 10
Method: Four to five weeks old db/db mice (BKS.Cg-Dock7^m+/+Lepr^db/JNarl) and m/m mice (BKS.Cg-Dock7^m+/Dock7^m+) were obtained from National Laboratory Animal Center ([…], Taiwan). […] PMI Nutrition International, Brentwood, Mo.) and water ad libitum. […] Blood was sampled from the tail vein, and FPG levels were measured and recorded as the basic blood glucose levels. […] The total area under the curve (AUC) in OGTT was plotted and calculated by the Area Under Coordinates Program (StatsToDo Server, Department of Obstetrics and Gynecology, Chinese University of Hong Kong).

[3] = Body weight of mice recorded weekly; settings: Ex 3: db/db mice, daily dosing 3 weeks at doses of Table 10
Method: (§1) Four to five weeks old db/db mice (BKS.Cg-Dock7^m+/+Lepr^db/JNarl) and m/m mice (BKS.Cg-Dock7^m+/Dock7^m+) were obtained from National Laboratory Animal Center ([…], Taiwan). […] PMI Nutrition International, Brentwood, Mo.) and water ad libitum. […] The mouse body weight (bw) and the amounts of water and food intake were recorded weekly for the entire study period.

[4] = Food and water intake of mice; settings: for Food intake in db/db mice / Water intake in db/db mice: Ex 3, P<0.05; for Diet intake / Water intake: Ex 3: db/db mice, daily dosing 3 weeks at doses of Table 10
Method: as §1

[5] = Ex 3, after the treatments had been stopped for 6 weeks
[6] = Ex 3: db/db mice, daily dosing 3 weeks at doses of Table 10, week 9

Molecule | ALT (db/db mice [1]; mouse, in vivo) | AST (db/db mice [1]; mouse, in vivo) | BUN (db/db mice [1]; mouse, in vivo) | Creatinine (db/db mice [1]; mouse, in vivo) | OGTT AUC (db/db mice [2]; Week 6 (stopped for 3 weeks)) | OGTT AUC (db/db mice [2]; Week 9 (stopped for 6 weeks)) | Body weight ([3]; Baseline) | Body weight ([3]; Final) | Body weight ([3]; Week 3) | Body weight ([3]; Week 6 (stopped for 3 weeks)) | Body weight ([3]; Week 9 (stopped for 6 weeks)) | Food intake in db/db mice [4] | Water intake in db/db mice [4] | Diet intake [4] | Water intake [4] | Level of AST (db/db mice [1]; [5]) | Level of HbA1c (db/db mice [1]; [5]) | ALT (db/db mice [1]; [6]) | AST (db/db mice [1]; [6]) | HbA1c (db/db mice [1]; [6]) | other results
tienam | 104 ± 10^cd U/L | 212 ± 43^e U/L | 47 ± 4^d mg/dL | 0.473 ± 0.05^be mg/dL | – | – | – | – | – | – | – | – | – | – | – | – | – | – | – | – | –
CO/N=C(\C(=O)N[C@@H]1C(=O)N2C(C(=O)O)=C(CSc3nc(=O)c(=O)[nH]n3C)CS[C@H]12)c1csc(N)n1 [CEFT, ceftriaxone] | – | – | – | – | 1276 ± 69^b | 1483 ± 37^ce | 30.0 ± 1^b | 37.8 ± 2^c | 32.9 ± 1^cd | 34.1 ± 2^b | 38.8 ± 2^c | significantly reduced | significantly reduced | 5.0 ± 1^b g/mice/day | 7.1 ± 1^b mL/mice/day | reduce | reduce | 80 ± 7^bc U/L | 104 ± 10^ac U/L | 4.9 ± 0.2^c % | Level of ALT (db/db mice [1]; [5]): reduce; Level of BUN (db/db mice [1]; [5]): reduce; Level of Cr (db/db mice [1]; [5]): reduce; BUN (db/db mice [1]; [6]): 38 ± 2^bc mg/dL; Creatinine (db/db mice [1]; [6]): 0.428 ± 0.01^b mg/dL
C[C@@H](O)[C@H]1C(=O)N2C(C(=O)O)=C(S[C@@H]3CN[C@H](C(=O)N(C)C)C3)[C@H](C)[C@H]12 [MER, meropenem hydrate] | – | – | – | – | 1599 ± 39^c | 1648 ± 61^def | 28.3 ± 1^b | 36.0 ± 2^bc | 33.6 ± 1^cd | 37.1 ± 1b^c | 38.2 ± 2^c | – | – | 5.9 ± 1^c g/mice/day | 14.7 ± 1^e mL/mice/day | reduce | – | 89 ± 5^bcd U/L | 93 ± 8^ab U/L | 6.9 ± 0.3^e % | BUN (db/db mice [1]; [6]): 43 ± 2^bd mg/dL; Creatinine (db/db mice [1]; [6]): 0.488 ± 0.03^cde mg/dL
CC1(C)S[C@@H]2[C@H](NC(=O)Cc3ccccc3)C(=O)N2[C@H]1C(=O)O [PEN, penicillin G] | 72 ± 20^ab U/L | 169 ± 24^de U/L | 41 ± 5^bd mg/dL | 0.424 ± 0.02^ab mg/dL | 1088 ± 91^b | 1181 ± 69^b | 31.1 ± 1^b | 32.2 ± 1^b | 25.7 ± 1^b | 24.6 ± 1^a | 32.4 ± 1^b | significantly reduced | significantly reduced | 4.0 ± 0.9^a g/mice/day | 8.3 ± 4^c mL/mice/day | – | reduce | – | – | 4.2 ± 0.2^a % | Regulation of blood glucose homeostasis (OGTT glucose vs G8) (db/db mice [2]; Ex 3, medications stopped for at least 3 weeks (FIG. 6A, 6B)): still effective
